From patent publication US8716246B2, “Azuvirin peptides” (The Regents of the University of California, priority 2011, dated 2014)
“Also recorded” adds a separate entry of the source. Bridge positions count the residues as written; N and C are the ends. Square brackets hold non-standard residues; d marks the D form. Ends that are not written are not given here. Peptide text beside a SMILES is read from it. * marks the point of attachment. Oic = O=C(O)[C@@H]1C[C@@H]2CCCC[C@@H]2N1; Cha = N[C@@H](CC1CCCCC1)C(=O)O; Tle = CC(C)(C)[C@H](N)C(=O)O; Nicotinoyl = O=C(c1cccnc1)*; Acm = CC(=O)NC*

How the values were obtained:
[1] = test system: Lewis lung carcinoma (LLC); assay: Artificial metastasis model: i.v. Lewis lung carcinoma plus local thoracic irradiation, lung tumor nodules counted; format: in vivo, C57BL/6 mice; details: for tumor colonies lower / radiation efficacy improved versus radiation alone: Example 1: 500 μg (~10 mg/kg) total i.p. in 4 daily doses 60 min before 4 Gy thoracic irradiation, equimolar controls, nodules day 14; for radiosensitizing effect in artificial metastasis model (in words): with radiation therapy (4 x 4 Gy), peptide or equimolar nicotinamide i.p. from day 4 after i.v. LLC
Description: The AzV-36-Nic conjugate was tested in vivo for its ability to radiosensitize Lewis lung carcinoma (LCC) in an artificial metastasis model. Briefly, C57BL/6 mice (8 weeks old) were intravenously injected with 5×10^5 cells of syngeneic LLC. Various treatments were initiated 4 days later, after cancer engraftment. In general, each animal received intraperitoneally a total of 500 μg (˜10 mg/kg) of peptide in 4 daily doses 60 mins before local thoracic irradiation (4 Gy). Animals were sacrificed on the 14th day of the experiment and lung tumor nodules were counted.
Animal experiments. Briefly, C57BL/6 mice (8 weeks old) were intravenously injected with 5×10^5 cells of syngeneic LLC. Various treatments were initiated 4 days later, after cancer engraftment. In general, each animal received intraperitoneally a total of 500 μg (˜10 mg/kg) of peptide in 4 daily doses 60 min before local thoracic irradiation (4 Gy). Animals were sacrificed on the 14th day of the experiment and lung tumor nodules were counted.
Animal experiments. C57BL/6 gnotobiotic mice (8 weeks old) were obtained from the UCLA AALAC accredited Department of Radiation Oncology Facility and intravenously injected with 5×10^5 cells of syngeneic LLC. Various treatments were initiated 4 days later, after cancer engraftment. In general, each animal received intraperitoneally a total of 500 μg (˜25 mg/kg) of peptide (or equimolar amount of nicotinamide) in 4 daily doses 60 min before local thoracic irradiation (0 or 4 Gy, total dose: 4.4=16 Gy) that was delivered using an Atomic Energy of Canada cesium gamma irradiator with a dose rate of approximately 0.6 Gy/min with the rest of the body shielded. Prior to irradiation animals were anesthetized by intraperitoneal injection of ketamine/xylazine mixture. Animals were sacrificed on the 14th day of the experiment and lung tumor nodules were counted. All experiments were approved by the UCLA Animal Care and Use Committee and conformed to local and national guidelines.

rhEphB4 = target: T1, rhEphB4 (Homo sapiens, UniProt P54760); assay: SPR binding to immobilized rhEphB4 (Biacore 3000); details: SPR; averaged from at least 4 independent experiments; read-out: KD ± SEM, rhEphB4
T1 construct: purchased R&D Systems, Inc., Minneapolis, Minn
T1 sequence (P54760 16-987): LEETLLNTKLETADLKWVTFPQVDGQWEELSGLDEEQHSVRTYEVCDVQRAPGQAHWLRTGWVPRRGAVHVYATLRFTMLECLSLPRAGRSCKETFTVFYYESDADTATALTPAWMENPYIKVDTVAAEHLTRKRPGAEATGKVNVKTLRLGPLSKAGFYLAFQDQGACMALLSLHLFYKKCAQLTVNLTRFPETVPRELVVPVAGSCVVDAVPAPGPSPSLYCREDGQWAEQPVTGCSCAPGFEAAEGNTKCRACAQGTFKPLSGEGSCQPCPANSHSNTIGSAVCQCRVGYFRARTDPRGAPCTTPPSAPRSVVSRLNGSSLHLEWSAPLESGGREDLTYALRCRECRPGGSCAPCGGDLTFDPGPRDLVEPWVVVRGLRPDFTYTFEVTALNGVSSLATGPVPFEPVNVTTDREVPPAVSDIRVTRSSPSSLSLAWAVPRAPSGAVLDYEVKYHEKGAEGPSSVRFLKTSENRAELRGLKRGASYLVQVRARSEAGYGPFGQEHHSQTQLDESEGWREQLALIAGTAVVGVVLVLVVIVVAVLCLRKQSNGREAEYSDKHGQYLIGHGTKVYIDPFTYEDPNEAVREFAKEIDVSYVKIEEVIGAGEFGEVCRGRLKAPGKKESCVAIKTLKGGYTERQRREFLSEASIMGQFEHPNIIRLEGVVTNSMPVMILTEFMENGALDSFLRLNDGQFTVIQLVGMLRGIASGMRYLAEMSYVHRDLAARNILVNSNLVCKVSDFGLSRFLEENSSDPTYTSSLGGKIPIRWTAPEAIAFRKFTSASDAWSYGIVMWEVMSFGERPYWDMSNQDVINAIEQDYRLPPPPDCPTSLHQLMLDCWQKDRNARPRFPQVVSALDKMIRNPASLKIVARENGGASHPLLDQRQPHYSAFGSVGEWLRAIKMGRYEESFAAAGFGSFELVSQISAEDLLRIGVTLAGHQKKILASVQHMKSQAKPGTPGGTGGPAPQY
Description: (§1) Binding to selected ephrin receptors was measured by surface plasmon resonance on a Biacore3000 instrument. Commercially available ephrin receptors: EphA2, EphB2 and EphB4 (R&D Systems) were immobilized on a CM-5 chip by amine coupling and tested peptides were passed over a chip surface as analytes.
(§2) Binding studies. Binding studies were performed by surface plasmon resonance (SPR) on a BIAcore 3000 system (BiaCore AB, Piscataway, N.J.). BIAcore CM5 sensor chips were utilized in all experiments. Binding studies were performed in HBS-EP running buffer (pH=7.4) containing 10 mM HEPES, 150 mM NaCl, 3 mM EDTA, and 0.005% polysorbate 20. Commercially available ephrin receptors: EphA2, EphB2 and EphB4 (R&D Systems, Inc., Minneapolis, Minn.) were immobilized on a CM5 sensor chip using the amine coupling method. The chip was activated by mixing 400 mM N-ethyl-N-(3-dimethylaminopropyl)-carbodiimide hydrochloride and 100 mM N-hydroxysuccinimide. Residual reactive groups on the chip surface were blocked using 1.0 M ethanolamine/HCl (pH=8.5). The flow cell-1 chip, which served as a control, lacked immobilized protein but was treated with N-ethyl-N-(3-dimethylaminopropyl)-carbodiimide hydrochloride, N hydroxysuccinimide, and ethanolamine/HCl. Binding signals were corrected for nonspecific binding by subtracting the flow cell-1 signal (blank surface). To regenerate chip surfaces, bound ligands were removed with 10 mM HCl. Data were analyzed with BIAevaluation 4.1 software (Biacore, Piscataway, N.J.).

rhEphA2 = rhEphA2 (Homo sapiens, UniProt P29317); assay: SPR binding to immobilized rhEphA2 (Biacore 3000); set-up: purchased R&D Systems, Inc., Minneapolis, Minn; details: SPR; averaged from at least 4 independent experiments; read-out: KD ± SEM, rhEphA2
Description: as §1, §2

rhEphB2/Fc = rhEphB2/Fc (Homo sapiens, UniProt P29323); assay: SPR binding to immobilized rhEphB2/Fc (Biacore 3000); set-up: Fc; purchased R&D Systems, Inc., Minneapolis, Minn; details: SPR; averaged from at least 4 independent experiments; read-out: KD ± SEM, rhEphB2/Fc
Description: as §1, §2

Molecule | tumor colonies lower / radiation efficacy improved versus radiation alone [1] | radiosensitizing effect in artificial metastasis model (in words) [1] | other results
C[C@@H](O)[C@@H]1NC(=O)[C@H](CCCNC(=N)N)NC(=O)[C@H](Cc2c[nH]cn2)NC(=O)[C@@H](CCCNC(=N)N)NC(=O)[C@@H]2C[C@@H]3CCCC[C@@H]3N2C(=O)[C@H](CC2CCCCC2)NC(=O)[C@H](C(C)(C)C)NC(=O)[C@@H](NC(=O)[C@H](CC2CCCCC2)NC(=O)[C@H](CC2CCCCC2)NC(=O)[C@@H](CCCCN)NC(=O)[C@@H](N)Cc2ccc(O)cc2)CSSC[C@@H](C(=O)N[C@H](CCCCN)C(N)=O)NC(=O)[C@H](CC2CCCCC2)NC1=O [AzV36, Yk-Cha-Cha-Cys-Tle-Cha-Oic-rHRT-Cha-Cys-k-CONH] (H-Y[dK][Cha][Cha]C[Tle][Cha][Oic][dR]HRT[Cha]C[dK]-NH2; disulfide 5-14; N-terminus assumed) | 1.3 fold |  | Kd (rhEphB4): 106 ± 15 nM; Kd (rhEphA2): 126 ± 11 nM; Kd (rhEphB2/Fc): 164 ± 11 nM
CC(=O)NCSC[C@H](NC(=O)[C@H](CC1CCCCC1)NC(=O)[C@H](CC1CCCCC1)NC(=O)[C@@H](CCCCN)NC(=O)[C@@H](N)Cc1ccc(O)cc1)C(=O)N[C@H](C(=O)N[C@@H](CC1CCCCC1)C(=O)N1[C@H](C(=O)N[C@H](CCCNC(=N)N)C(=O)N[C@@H](Cc2c[nH]cn2)C(=O)N[C@@H](CCCNC(=N)N)C(=O)N[C@H](C(=O)N[C@@H](CC2CCCCC2)C(=O)N[C@@H](CSCNC(C)=O)C(=O)N[C@H](CCCCN)C(N)=O)[C@@H](C)O)C[C@@H]2CCCC[C@@H]21)C(C)(C)C [AzV36-L] (H-Y[dK][Cha][Cha]C(Acm)[Tle][Cha][Oic][dR]HRT[Cha]C(Acm)[dK]-NH2; N-terminus assumed) |  | no or minimal radiosensitizing effect; also recorded: only marginally improved radiation efficacy; also recorded: ineffective | 
NC(=O)c1cccnc1 [nicotinamide, reference compound] |  | no or minimal radiosensitizing effect; also recorded: only marginally improved radiation efficacy | radiosensitizing effect in artificial metastasis model (in words) ([1]; listed as Nic): ineffective
AzV-36-Nic: Example 1: AzV-36 conjugated with nicotinic acid via amide bond; linear, 15 residues; probably AzV36-NicL (Y[dK](Nicotinoyl)[Cha][Cha]C[Tle][Cha][Oic][dR]HRT[Cha]C[dK]-NH2; not fully specified (bridges); printed as YkNic-Cha-Cha-Cys-Tle-Cha-Oic-rHRT-Cha-Cys-k-CONH; cysteine pairing not given here) | 3-10 fold |  | 
